From patent US9334289B2, “Cephem compound having catechol or pseudo-catechol structure” (SHIONOGI & CO., LTD., priority 2011, dated 2016)
In brackets after ≈: the same amount, converted by molar mass.

Tests used:
Test in all cases: MIC, CLSI broth microdilution, Test Example 2
Format in all cases: cell-based
[1] = system: P. aeruginosa SR01332; conditions: VIM-11 MBL producing strain (carbapenem resistance strain), cation-adjusted Iso-Sensitest broth containing human Apo-transferrin, 5×10^5 cfu/mL; for MIC: Pseudomonas aeruginosa, SR01332, read-out: Minimum Inhibitory Concentration (MIC) P. aeruginosa SR01332
Method: (§1) Measurement of Minimum Inhibitory Concentration (MIC: μg/mL) was conducted according to CLSI (Clinical and Laboratory Standards Institute) method, and the amount of bacteria for inoculation was 5×10^5 cfu/mL, and cation-adjusted Iso-Sensitest broth containing human Apo-transferrin was used as a test medium, and the experiment was conducted using broth microdilution method.

[2] = system: K. pneumoniae ATCC700603; conditions: SHV18 ESBL producing strain, cation-adjusted Iso-Sensitest broth containing human Apo-transferrin, 5×10^5 cfu/mL; for MIC: Klebsiella pneumoniae, ATCC700603, read-out: Minimum Inhibitory Concentration (MIC) K. pneumoniae ATCC 700603
Method: as §1

[3] = system: E. coli ATCCBAA-196; conditions: TEM-10 ESBL producing strain, cation-adjusted Iso-Sensitest broth containing human Apo-transferrin, 5×10^5 cfu/mL; for MIC: Escherichia coli, ATCCBAA196, read-out: Minimum Inhibitory Concentration (MIC) E. coli ATCC BAA-196
Method: as §1

[4] = system: E. cloacae NCTC13464; conditions: CTX-M group 9 ESBL producing strain, cation-adjusted Iso-Sensitest broth containing human Apo-transferrin, 5×10^5 cfu/mL; for MIC: Enterobacter cloacae, NCTC13464, read-out: Minimum Inhibitory Concentration (MIC) E. cloacae NCTC 13464
Method: as §1

[5] = system: P. aeruginosa SR01335; conditions: VIM-1 like MBL producing strain (carbapenem resistance strain), cation-adjusted Iso-Sensitest broth containing human Apo-transferrin, 5×10^5 cfu/mL; for MIC: Pseudomonas aeruginosa, SR01335, read-out: Minimum Inhibitory Concentration (MIC) P. aeruginosa SR01335
Method: as §1

[6] = system: A. baumannii SR01331; conditions: PER-1, OXA-23.51 ESBL- & OXA-type carbapenemase producing strain, cation-adjusted Iso-Sensitest broth containing human Apo-transferrin, 5×10^5 cfu/mL; for MIC: Acinetobacter baumannii, SR01331, read-out: Minimum Inhibitory Concentration (MIC) A. baumannii SR01331
Method: as §1

[7] = system: E. coli SR01337; conditions: TEM-1 ESBL producing strain, cation-adjusted Iso-Sensitest broth containing human Apo-transferrin, 5×10^5 cfu/mL; for MIC: Escherichia coli, SR01337, read-out: Minimum Inhibitory Concentration (MIC) E. coli SR01337
Method: as §1

[8] = system: E. coli ATCCBAA-200; conditions: SHV-4 ESBL producing strain, cation-adjusted Iso-Sensitest broth containing human Apo-transferrin, 5×10^5 cfu/mL; for MIC: Escherichia coli, ATCCBAA200, read-out: Minimum Inhibitory Concentration (MIC) E. coli ATCC BAA-200
Method: as §1

Row | Compound | MIC [1] | MIC [2] | MIC [3] | MIC [4] | MIC [5] | MIC [6] | MIC [7] | MIC [8] | Minimum Inhibitory Concentration (MIC) P. aeruginosa SR01332 [1] | Minimum Inhibitory Concentration (MIC) K. pneumoniae ATCC 700603 [2] | Minimum Inhibitory Concentration (MIC) E. coli ATCC BAA-196 [3] | Minimum Inhibitory Concentration (MIC) E. cloacae NCTC 13464 [4] | Minimum Inhibitory Concentration (MIC) P. aeruginosa SR01335 [5] | Minimum Inhibitory Concentration (MIC) A. baumannii SR01331 [6] | Minimum Inhibitory Concentration (MIC) E. coli SR01337 [7] | Minimum Inhibitory Concentration (MIC) E. coli ATCC BAA-200 [8]
1 | CC(C)(O/N=C(\C(=O)N[C@@H]1C(=O)N2C(c3nnn[nH]3)=C(C[N+]3(CCNC(=O)c4cc(O)c(O)c(F)c4)CCCC3)CS[C@H]12)c1nc(N)sc1Cl)C(=O)[O-] [Compound I-104] | 4 µg/mL (≈ 5.04 µM) | 0.125 µg/mL (≈ 0.157 µM) | ≤ 0.031 µg/mL | 0.125 µg/mL (≈ 0.157 µM) | 2 µg/mL (≈ 2.52 µM) | 0.5 µg/mL (≈ 0.63 µM) | ≤ 0.031 µg/mL | 0.063 µg/mL (≈ 0.0793 µM) | – | – | – | – | – | – | – | –
2 | CC(C)(O/N=C(\C(=O)N[C@@H]1C(=O)N2C(c3nnn[n-]3)=C(C[N@+]34CCC[C@H]3CN(C(=O)c3cc(O)c(O)c(F)c3)CC4)CS[C@H]12)c1nc(N)sc1Cl)C(=O)[O-].[Na+] [Compound I-34] | 4 µg/mL | 0.5 µg/mL | 0.063 µg/mL | 0.5 µg/mL | 2 µg/mL | 1 µg/mL | ≤ 0.031 µg/mL | 0.25 µg/mL | – | – | – | – | – | – | – | –
3 | CC(C)(O/N=C(\C(=O)N[C@@H]1C(=O)N2C(c3nnn[nH]3)=C(C[n+]3cccc4c3CCCN4C(=O)c3ccc(O)c(O)c3Cl)CS[C@H]12)c1nsc(N)n1)C(=O)O.[Na+] [Compound I-115] | 2 µg/mL | 0.5 µg/mL | 1 µg/mL | 1 µg/mL | 1 µg/mL | 0.5 µg/mL | ≤ 0.031 µg/mL | 1 µg/mL | – | – | – | – | – | – | – | –
4 | C[N+]1(CC2=C(c3nnn[nH]3)N3C(=O)[C@@H](NC(=O)/C(=N\O[C@@H](CC(=O)O)C(=O)O)c4nc(N)sc4Cl)[C@H]3SC2)[C@@H]2CC[C@H]1C[C@@H](NC(=O)c1ccc(O)c(O)c1Cl)C2.[Na+].[Na+] (stereo partly shown) [Compound I-96] | 4 µg/mL | 1 µg/mL | 0.25 µg/mL | 0.5 µg/mL | 2 µg/mL | 0.25 µg/mL | 0.125 µg/mL | 1 µg/mL | – | – | – | – | – | – | – | –
5 | CC(C)(O/N=C(\C(=O)N[C@@H]1C(=O)N2C(c3nnn[nH]3)=C(C[N+]3(CCNC(=O)c4cc(O)c(O)c(F)c4)CCCC3)CS[C@H]12)c1nsc(N)n1)C(=O)[O-] [Compound I-108] | 2 µg/mL (≈ 2.63 µM) | 0.25 µg/mL (≈ 0.329 µM) | 0.25 µg/mL (≈ 0.329 µM) | 0.125 µg/mL (≈ 0.164 µM) | 2 µg/mL (≈ 2.63 µM) | 1 µg/mL (≈ 1.31 µM) | ≤ 0.031 µg/mL | 0.25 µg/mL (≈ 0.329 µM) | – | – | – | – | – | – | – | –
6 | CC(C)(O/N=C(\C(=O)N[C@@H]1C(=O)N2C(c3nnn[nH]3)=C(C[N@+]34CCC[C@H]3CN(C(=O)c3ccc(O)c(O)c3Cl)CC4)CS[C@H]12)c1nc(N)sc1Cl)C(=O)[O-] [Compound I-105] | 4 µg/mL (≈ 4.86 µM) | 0.25 µg/mL (≈ 0.304 µM) | 0.063 µg/mL (≈ 0.0766 µM) | 0.25 µg/mL (≈ 0.304 µM) | 2 µg/mL (≈ 2.43 µM) | 2 µg/mL (≈ 2.43 µM) | ≤ 0.031 µg/mL | 0.25 µg/mL (≈ 0.304 µM) | – | – | – | – | – | – | – | –
7 | CC(C)(O/N=C(\C(=O)N[C@@H]1C(=O)N2C(c3nnn[n-]3)=C(C[N@+]34CCC[C@H]3CN(C(=O)c3cc(O)c(O)c(Cl)c3)CC4)CS[C@H]12)c1nc(N)sc1Cl)C(=O)[O-].[Na+] [Compound I-29] | 4 µg/mL | 0.125 µg/mL | ≤ 0.031 µg/mL | 0.063 µg/mL | 2 µg/mL | 0.5 µg/mL | ≤ 0.031 µg/mL | 0.063 µg/mL | – | – | – | – | – | – | – | –
8 | CC(C)(O/N=C(\C(=O)N[C@@H]1C(=O)N2C(c3nnn[n-]3)=C(C[n+]3ccc(NC(=O)c4ccc(O)c(O)c4Cl)cc3)CS[C@H]12)c1nc(N)sc1Cl)C(=O)[O-].[Na+] [Compound I-36] | 0.5 µg/mL | 0.5 µg/mL | ≤ 0.031 µg/mL | 0.125 µg/mL | 4 µg/mL | 0.5 µg/mL | ≤ 0.031 µg/mL | 0.25 µg/mL | – | – | – | – | – | – | – | –
9 | C[N+](C)(CCNC(=O)c1ccc(O)c(O)c1Cl)CC1=C(c2nnn[nH]2)N2C(=O)[C@@H](NC(=O)/C(=N\O[C@@H](CC(=O)O)C(=O)[O-])c3nc(N)sc3Cl)[C@H]2SC1 [Compound I-101] | 2 µg/mL (≈ 2.46 µM) | 0.125 µg/mL (≈ 0.153 µM) | ≤ 0.031 µg/mL | 0.063 µg/mL (≈ 0.0773 µM) | 1 µg/mL (≈ 1.23 µM) | 0.25 µg/mL (≈ 0.307 µM) | ≤ 0.031 µg/mL | 0.063 µg/mL (≈ 0.0773 µM) | – | – | – | – | – | – | – | –
10 | Cc1cc2cc(O)c(O)cc2c[n+]1CC1=C(c2nnn[nH]2)N2C(=O)[C@@H](NC(=O)/C(=N\OC(C)(C)C(=O)O)c3nsc(N)n3)[C@H]2SC1.[Na+] [Compound I-109] | 0.5 µg/mL | 0.25 µg/mL | 0.5 µg/mL | 0.125 µg/mL | 1 µg/mL | 0.5 µg/mL | ≤ 0.031 µg/mL | 1 µg/mL | – | – | – | – | – | – | – | –
11 | CC(C)(O/N=C(\C(=O)N[C@@H]1C(=O)N2C(c3nnn[nH]3)=C(C[N@+]34CCC[C@H]3CN(C(=O)c3ccc(O)c(O)c3Cl)CC4)CS[C@H]12)c1csc(N)n1)C(=O)[O-] [Compound I-98] | 8 µg/mL (≈ 10.1 µM) | 0.25 µg/mL (≈ 0.317 µM) | 0.25 µg/mL (≈ 0.317 µM) | 0.125 µg/mL (≈ 0.159 µM) | 2 µg/mL (≈ 2.54 µM) | 1 µg/mL (≈ 1.27 µM) | ≤ 0.031 µg/mL | 0.5 µg/mL (≈ 0.634 µM) | – | – | – | – | – | – | – | –
12 | Nc1nc(/C(=N/O[C@@H](CC(=O)[O-])C(=O)[O-])C(=O)N[C@@H]2C(=O)N3C(c4nnn[n-]4)=C(C[N+]4(CCNC(=O)c5ccc(O)c(O)c5Cl)CCCCC4)CS[C@H]23)cs1.[Na+].[Na+] [Compound I-67] | 2 µg/mL | ≤ 0.031 µg/mL | ≤ 0.031 µg/mL | 0.063 µg/mL | 2 µg/mL | 0.25 µg/mL | ≤ 0.031 µg/mL | 0.063 µg/mL | – | – | – | – | – | – | – | –
13 | Nc1nc(C(=NOC(CC(=O)[O-])C(=O)[O-])C(=O)NC2C(=O)N3C(c4nnn[n-]4)=C(C[N+]45CCC(CNC(=O)c6ccc(O)c(O)c6Cl)(CC4)CC5)CSC23)c(Cl)s1.[Na+].[Na+] (stereo not shown) [Compound I-94] | – | – | – | – | – | – | – | – | 2 µg/mL | 0.5 µg/mL | 0.063 µg/mL | 0.5 µg/mL | 1 µg/mL | 0.5 µg/mL | 0.063 µg/mL | 0.5 µg/mL
14 | CC(C)(O/N=C(\C(=O)N[C@@H]1C(=O)N2C(c3nnn[n-]3)=C(C[N+]3(CCNC(=O)c4cc(O)c(O)c(Cl)c4)CCCC3)CS[C@H]12)c1nc(N)sc1Cl)C(=O)[O-].[Na+] [Compound I-30] | 2 µg/mL | 0.125 µg/mL | ≤ 0.031 µg/mL | 0.063 µg/mL | 2 µg/mL | 1 µg/mL | ≤ 0.031 µg/mL | 0.063 µg/mL | – | – | – | – | – | – | – | –
15 | CC(C)(O/N=C(\C(=O)N[C@@H]1C(=O)N2C(c3nnn[n-]3)=C(C[n+]3ccc4cc(O)c(O)cc4c3)CS[C@H]12)c1nc(N)sc1Cl)C(=O)[O-].[Na+] [Compound I-37] | 0.25 µg/mL | 0.063 µg/mL | ≤ 0.031 µg/mL | ≤ 0.031 µg/mL | 0.5 µg/mL | 0.25 µg/mL | ≤ 0.031 µg/mL | 0.063 µg/mL | – | – | – | – | – | – | – | –
16 | Nc1nc(/C(=N/O[C@@H](CC(=O)[O-])C(=O)[O-])C(=O)N[C@@H]2C(=O)N3C(c4nnn[n-]4)=C(C[N+]45CCC[C@H]4CN(C(=O)c4ccc(O)c(O)c4Cl)CC5)CS[C@H]23)cs1.[Na+].[Na+] (stereo partly shown) [Compound I-57] | 8 µg/mL | 0.125 µg/mL | 0.063 µg/mL | 0.25 µg/mL | 1 µg/mL | 0.5 µg/mL | 0.063 µg/mL | 0.25 µg/mL | – | – | – | – | – | – | – | –
17 | CC(C)(O/N=C(\C(=O)N[C@@H]1C(=O)N2C(c3nnn[nH]3)=C(C[N+]3(CCNC(=O)c4ccc(O)c(O)c4Cl)CCCCC3)CS[C@H]12)c1nsc(N)n1)C(=O)[O-] [Compound I-118] | 8 µg/mL (≈ 10.1 µM) | 0.063 µg/mL (≈ 0.0796 µM) | 0.25 µg/mL (≈ 0.316 µM) | 0.25 µg/mL (≈ 0.316 µM) | 1 µg/mL (≈ 1.26 µM) | 0.25 µg/mL (≈ 0.316 µM) | ≤ 0.031 µg/mL | 0.25 µg/mL (≈ 0.316 µM) | – | – | – | – | – | – | – | –
